A value given as a limit tells only on which side of the number the result lay.

The target of this assay is T1, UCHL1 (Homo sapiens, UniProt P09936).
T1 construct: made in house; host or cells: HEK293T
T1 sequence (P09936 1-223): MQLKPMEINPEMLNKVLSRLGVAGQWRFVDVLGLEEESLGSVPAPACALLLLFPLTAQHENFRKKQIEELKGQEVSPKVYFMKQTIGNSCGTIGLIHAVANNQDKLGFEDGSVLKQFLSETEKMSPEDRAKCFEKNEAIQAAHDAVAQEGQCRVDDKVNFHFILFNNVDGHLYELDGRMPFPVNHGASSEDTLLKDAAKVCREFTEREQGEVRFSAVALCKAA
Put plainly: UCHL1 biochemical IC50 assay (fluorescence polarisation). The following applies: 30 min enzyme/compound pre-incubation at room temp, read after 2 hr incubation, read-out: Activity range (UCHL1 biochemical IC50 assay). The source says:
Biological Activity of Compounds of the Invention Abbreviations: TAMRA carboxytetramethylrhodamine PCR polymerase chain reaction PBS phosphate buffered saline EDTA ethylenediaminetetraacetic acid Tris 2-amino-2-(hydroxymethyl)-1,3-propanediol NP-40 Nonidet P-40, octylphenoxypolyethoxyethanol BSA bovine serum albumin In Vitro UCHL1 Inhibition Assay Expression and Purification of UCHL1
The UCHL1 construct was PCR amplified and cloned into a pFLAG-CMV-6a vector (Sigma-Aldrich) with an N-terminal FLAG tag. HEK293T cells were transfected with FLAG-UCHL1 using TransIT-LT1 transfection reagent (Mirus) according to the manufacturer's instructions. Cells were harvested 40 hours after transfection. Cells were washed once with PBS and scraped in lysis buffer (50 mM Tris, pH 7.5, 150 mM NaCl, 3 mM EDTA, 0.5% NP40, 10% glycerol, 5 mM beta-mercaptoethanol, protease inhibitors (complete mini, Roche) and phosphatase inhibitors (PhosSTOP mini, Roche). Lysates were incubated for 30 min on ice and centrifuged at 1200 rpm for 10 min at 4° C. Soluble supernatant was added to FLAG affinity resin (EZview Rad ANTI-FLAG M2 affinity gel, Sigma-Aldrich) equilibrated in low salt buffer (20 mM Tris, pH 7.5, 150 mM NaCl, 0.5 mM EDTA, 5 mM beta-mercaptoethanol) and incubated at 4° C. for 3 hours rotating. The resin was spun at 2000 rpm for 2 min and the supernatant was removed. The resin was washed two times with low salt buffer and one time with high salt buffer (20 mM Tris, pH 7.5, 500 mM NaCl, 0.5 mM EDTA, 5 mM beta-mercaptoethanol, protease inhibitors (complete mini, Roche) and phosphatase inhibitors (PhosSTOP mini, Roche). To elute the bound UCHL1, elution buffer (10 mM Tris, pH 7.5, 150 mM NaCl, 0.5 mM FDTA, 10% glycerol, 0.5% NP40, 5 mM beta-mercaptoethanol, 0.15 mg/ml 3×FLAG peptide (Sigma-Aldrich)) was added to the resin and incubated at 4° C. for 2.5 hours rotating. The resin was centrifuged at 4000 rpm for 30 seconds, and the supernatant containing purified FLAG-UCHL1 was removed and stored at −80° C.
UCHL1 Biochemical IC50 Assay
Dilution plates were prepared at 21 times the final concentration (2100 μM for a final concentration of 100 µM) in 50% DMSO in a 96-well polypropylene V-bottom plate (Greiner #651201). A typical 8-point dilution series to be 100, 30, 10, 3, 1, 0.3, 0.1, 0.03 μM final. Reactions were performed in duplicate in black 384 well plates (small volume, Greiner 784076) in a final reaction volume of 21 μl. Either 1 μl of 50% DMSO or diluted compound was added to the plate. UCHL1 was diluted in reaction buffer (20 mM Tris, pH 7.5, 100 mM NaCl, 0.05% Tween 20, 0.5 mg/ml BSA, 5 mM—beta mercaptoethanol) to the equivalent of 0.05 μl/well and 10 μl of diluted UCHL1 was added to the compound. Enzyme and compound were incubated for 30 min at room temp. Reactions were initiated by the addition of 50 nM of TAMRA labelled peptide linked to ubiquitin via an iso-peptide bond as fluorescence polarisation substrate. Reactions were read immediately after addition of substrate and following a 2 hr incubation at room temperature. Readings were performed on a Pherastar Plus (BMG Labtech). λ Excitation 540 nm; k Emission 590 nm.
For orientation: In fluorescence polarisation assays a small probe gives low polarisation when free and higher when bound to something large.
Broadly, the IC50 is the point on the concentration scale where inhibition reaches its midpoint. `C[C@H]1[C@@H](C(=O)Nc2cc3cc(-c4cn[nH]c4)ccc3cn2)CCN1C#N` [Example 266, (2S,3S)—N-(6-(1H-pyrazol-4-yl)isoquinolin-3-yl)-1-cyano-2-methylpyrrolidine-3-carboxamide]: the IC50 is below 1 µM. Consider `N#CN1CC[C@H](C(=O)Nc2cc(-c3ccccc3)cnn2)C1` [Example 275, (S)-1-cyano-N-(5-phenylpyridazin-3-yl)pyrrolidine-3-carboxamide], for which the IC50 was in the range of 1 to 10 µM. With `N#CN1CC[C@H](C(=O)Nc2ncc(-c3ccc(F)c(F)c3)s2)C1` [Example 67, (S)-1-cyano-N-(5-(3,4-difluorophenyl)thiazol-2-yl)pyrrolidine-3-carboxamide] the figure was below 1 µM.

Consider `Cc1oncc1-c1ccc2nc(NC(=O)[C@H]3CCN(C#N)C3)sc2c1` [Example 126, (S)-1-cyano-N-(6-(5-methylisoxazol-4-yl)benzo[d]thiazol-2-yl)pyrrolidine-3-carboxamide], for which the IC50 was below 1 µM. Regarding `N#CN1CC[C@H](C(=O)Nc2ccn(-c3ccccc3)n2)C1` [Example 45, (S)-1-cyano-N-(1-phenyl-1H-pyrazol-3-yl)pyrrolidine-3-carboxamide], the IC50 was in the range of 10 to 30 µM. As for `N#CN1CC[C@H](C(=O)Nc2cn(-c3ccccc3)nn2)C1` [Example 44, (S)-1-cyano-N-(1-phenyl-1H-1,2,3-triazol-4-yl)pyrrolidine-3-carboxamide], the IC50 fell in the range of 1 to 10 µM.

Take `CCNC(=O)c1cccc(-c2cnc(NC(=O)[C@H]3CCN(C#N)C3)s2)n1` [Example 225, (S)-6-(2-(1-cyanopyrrolidine-3-carboxamido)thiazol-5-yl)-N-ethylpicolinamide]: the IC50 is below 1 µM. Under `N#Cc1ccc(C2CC2)cc1-n1cnc(NC(=O)[C@H]2CCN(C#N)C2)c1` [Example 306, (S)-1-cyano-N-(1-(2-cyano-5-cyclopropylphenyl)-1H-imidazol-4-yl)pyrrolidine-3-carboxamide] stands below 1 µM; under `Cc1nc(-c2ccc3nc(NC(=O)[C@H]4CCN(C#N)C4)cn3c2)no1` [Example 209, (S)-1-cyano-N-(6-(5-methyl-1,2,4-oxadiazol-3-yl)imidazo[1,2-a]pyridin-2-yl)pyrrolidine-3-carboxamide], below 1 µM. For `N#CN1CC[C@H](C(=O)Nc2cn(-c3ccncc3)cn2)C1` [Example 182, (S)-1-cyano-N-(1-(pyridin-4-yl)-1H-imidazol-4-yl)pyrrolidine-3-carboxamide], the IC50 is below 1 µM. Take `N#CN1CC[C@H](C(=O)Nc2ncc(-c3ccc(F)cc3)s2)C1` [Example 66, (S)-1-cyano-N-(5-(4-fluorophenyl)thiazol-2-yl)pyrrolidine-3-carboxamide]: the IC50 is below 1 µM. Under `Cc1noc(C)c1CCn1cnc(NC(=O)[C@H]2CCN(C#N)C2)c1` [Example 179, (S)-1-cyano-N-(1-(2-(3,5-dimethylisoxazol-4-yl)ethyl)-1H-imidazol-4-yl)pyrrolidine-3-carboxamide] stands below 1 µM; under `Cc1cccc(-c2cc(NC(=O)[C@H]3CCN(C#N)C3)nn2C)c1` [Example 271, (S)-1-cyano-N-(1-methyl-5-(m-tolyl)-1H-pyrazol-3-yl)pyrrolidine-3-carboxamide], below 1 µM; under `N#CN1CCC(C(=O)Nc2nc3ccc(Br)cc3s2)C1` (stereo not drawn) [Example 22, N-(6-bromobenzo[d]thiazol-2-yl)-1-cyano-pyrrolidine-3-carboxamide], 1 to 10 µM. In the case of `C[C@@H]1CN(C#N)C[C@H]1C(=O)Nc1ncc(N2CCCCC2)s1` (racemic) [Example 104, (±)-trans-1-cyano-4-methyl-N-(5-(piperidin-1-yl)thiazol-2-yl)pyrrolidine-3-carboxamide], the IC50 is below 1 µM. Under `N#CN1CCC(C(=O)Nc2ncc(-c3ccccc3Cl)s2)C1` (stereo not drawn) [Example 6, N-(5-(2-chlorophenyl)thiazol-2-yl)-1-cyano-pyrrolidine-3-carboxamide] stands 1 to 10 µM; under `N#CN1CCC(C(=O)Nc2ncc(-c3cccc(N)c3)s2)C1` (stereo not drawn) [Example 110, N-(5-(3-aminophenyl)thiazol-2-yl)-1-cyanopyrrolidine-3-carboxamide], 1 to 10 µM. In the case of `N#CN1CC[C@H](C(=O)Nc2cc(-c3cn4ccnc4cn3)ccn2)C1` [Example 254, (S)-1-cyano-N-(4-(imidazo[1,2-a]pyrazin-6-yl)pyridin-2-yl)pyrrolidine-3-carboxamide], the IC50 is below 1 µM. With `N#CN1CC[C@H](C(=O)Nc2cc(-c3cccc(Cl)c3)ncn2)C1` [Example 257, (S)-N-(6-(3-chlorophenyl)pyrimidin-4-yl)-1-cyanopyrrolidine-3-carboxamide] the figure was 1 to 10 µM; with `N#CN1CC2CC2(C(=O)Nc2ncc(-c3ccccc3)s2)C1` (stereo not drawn) [Example 279, 3-cyano-N-(5-phenylthiazol-2-yl)-3-azabicyclo[3.1.0]hexane-1-carboxamide], 1 to 10 µM; with `COC[C@H]1CCCN1Cc1cnc(NC(=O)[C@H]2CCN(C#N)[C@H]2C)s1` [Example 145, (2S,3S)-1-cyano-N-(5-(((R)-2-(methoxymethyl)pyrrolidin-1-yl)methyl)thiazol-2-yl)-2-methylpyrrolidine-3-carboxamide], 1 to 10 µM.

As for `Cc1noc(C)c1-c1ccn2cc(NC(=O)[C@H]3CCN(C#N)C3)nc2c1` [Example 127, (S)-1-cyano-N-(7-(3,5-dimethylisoxazol-4-yl)imidazo[1,2-a]pyridin-2-yl)pyrrolidine-3-carboxamide], the 50% inhibitory concentration (IC50) was below 1 µM. Under `CC(C)S(=O)(=O)N1CCn2nc(NC(=O)[C@H]3CCN(C#N)C3)cc2C1` [Example 240, (S)-1-cyano-N-(5-(isopropylsulfonyl)-4,5,6,7-tetrahydropyrazolo[1,5-a]pyrazin-2 yl)pyrrolidine-3-carboxamide] stands below 1 µM. For the molecule `N#CN1CCC(C(=O)Nc2cc(-c3ccccc3)no2)C1` (stereo not drawn) [Example 13], the IC50 fell in the range of 1 to 10 µM. With `CNC(=O)c1cc(-c2cnc(NC(=O)[C@H]3CCN(C#N)C3)s2)ccc1F` [Example 231, (S)-1-cyano-N-(5-(4-fluoro-3-(methylcarbamoyl)phenyl)thiazol-2-yl) pyrrolidine-3-carboxamide] the figure was below 1 µM; with `CS(=O)(=O)Nc1ccc(-c2cnc(NC(=O)[C@H]3CCN(C#N)C3)s2)cc1` [Example 217, (S)-1-cyano-N-(5-(4-(methylsulfonamido)phenyl)thiazol-2-yl)pyrro1idine-3-carboxamide], below 1 µM; with `N#CN1CC[C@@H](C(=O)Nc2ccc(-c3ccccc3)cn2)C1` [Example 71, (R)-1-cyano-N-(5-phenylpyridin-2-yl)pyrrolidine-3-carboxamide], 10 to 30 µM. Under `CN1CCc2nc(NC(=O)[C@H]3CCN(C#N)C3)sc2C1` [Example 200, (S)-1-cyano-N-(5-methyl-4,5,6,7-tetrahydrothiazolo[5,4-c]pyridin-2-yl)pyrrolidine-3-carboxamide] stands 1 to 10 µM; under `N#CN1CC[C@H](C(=O)Nc2nc3c(Br)cccc3s2)C1` [Example 48, (S)-N-(4-bromobenzo[d]thiazol-2-yl)-1-cyano-pyrrolidine-3-carboxamide], 1 to 10 µM; under `CN1CCN(c2cnc(NC(=O)C3CCN(C#N)C3)s2)CC1` (stereo not drawn) [Example 92, 1-cyano-N-(5-(4-methylpiperazin-1-yl)thiazol-2-yl)pyrrolidine-3-carboxamide], below 1 µM.
